# Source: patent US11583525B2, “Geranylgeranyltransferase I inhibitor for treatment of a PTEN defective cancer” (H. LEE MOFFITT CANCER CENTER AND RESEARCH INSTITUTE, INC., priority 2017, dated 2023)
# Peptide text beside a SMILES is read from it. * marks the point of attachment. Cbz = O=C(OCc1ccccc1)*
# Tested on: Ca2+ response
# Test: Ca2+ response measured with aequorin in COS-7 cells expressing IP3R3(Q-FR/A-AA)
# Assay type: cell-based, African Green Monkey
# Conditions: serum re-stimulated 4 h with MG132, ATP
# Procedure: FIGS. 1A, 1B, 1C, 1D, 1E, 1F, 1G, and 1H show FBXL2-mediated degradation of IP3R3 controls Ca2+ flux and sensitivity to apoptosis. […] Left, two representative traces. Right, quantification of three independent experiments. P values were calculated by one-way ANOVA and multiple-comparisons test. Error bars indicate s.e.m. 1b, 1c, and 1d, Apoptosis evaluated after treatment with H2O2 using automated nuclei count analysis of twenty randomly chosen fields following a 16 h treatment (1b), immunoblot detection of cleaved PARP and cleaved caspase-3 following a 3 h treatment (1c), and automated analysis of cells with released cytochrome c (Cyt c) from 80 randomly chosen fields following a 3 h treatment (1d). […] P values were calculated by one-way ANOVA and multiple-comparisons test. […] Left, representative traces show concentrations of cytosolic Ca2+ measured with aequorin. Right, quantification of three independent experiments. P values were calculated by one-way ANOVA and multiple-comparisons test. […] Apoptosis shown in 1h was evaluated as in 1b, except that H2O2 treatment was for 5 h. Analysis of cytochrome c release shown in 1i was evaluated as in 1d. P values were calculated by unpaired t-test. […]
# FIGS. 7A, 7B, 7C, 7D, 7E, 7F, 7G, 7H, and 7I show FBXL2 controls Ca2+ mobilization and Ca2+-mediated apoptosis. […] P values were calculated by one-way ANOVA and multiple-comparisons test. […]
structure (smiles),measurement,value
CC(C)C[C@@H](C=O)NC(=O)[C@H](CC(C)C)NC(=O)[C@H](CC(C)C)NC(=O)OCc1ccccc1 [MG132] (Cbz-Leu-Leu-Leu-aldehyde),Ca2+ response,did not produce an increase of the Ca2+ response
